Measurements: ChEMBL document CHEMBL4613324, “Design, Synthesis, and Evaluation of a Series of Novel Super Long-Acting DPP-4 Inhibitors for the Treatment of Type 2 Diabetes” (J Med Chem, 2020)

Assays:
[1] = Toxicity in male Sprague-Dawley rat during 3-month repeated dose toxicology study; conditions: in vivo
CYP2C9 = CYP2C9 (Homo sapiens, UniProt P11712); assay: Stability assessed as recombinant human CYP2C9 mediated compound metabolism by measuring parent compound remaining after 30 mins relative to control; type: ADME; conditions: read-out: Stability
CYP2C9, sequence (P11712 whole entry): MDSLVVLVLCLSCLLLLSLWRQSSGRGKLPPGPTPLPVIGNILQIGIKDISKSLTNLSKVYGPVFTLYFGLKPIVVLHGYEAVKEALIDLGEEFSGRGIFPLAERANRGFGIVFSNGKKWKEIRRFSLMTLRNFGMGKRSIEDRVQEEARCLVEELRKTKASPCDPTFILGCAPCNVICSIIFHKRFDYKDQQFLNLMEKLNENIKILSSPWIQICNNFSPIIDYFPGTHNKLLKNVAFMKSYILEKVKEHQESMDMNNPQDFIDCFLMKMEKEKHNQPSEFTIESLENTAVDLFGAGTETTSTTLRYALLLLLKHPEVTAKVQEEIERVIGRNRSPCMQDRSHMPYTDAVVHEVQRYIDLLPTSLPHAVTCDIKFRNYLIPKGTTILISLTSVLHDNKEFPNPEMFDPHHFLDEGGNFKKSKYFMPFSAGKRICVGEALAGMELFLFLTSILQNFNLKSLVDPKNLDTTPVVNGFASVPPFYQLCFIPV

Cytochrome P450 1A2 = molecular target: T1, Cytochrome P450 1A2 (Homo sapiens, UniProt P05177); assay: Inhibition of recombinant human CYP1A2; type: ADME
T1 sequence (P05177 whole entry): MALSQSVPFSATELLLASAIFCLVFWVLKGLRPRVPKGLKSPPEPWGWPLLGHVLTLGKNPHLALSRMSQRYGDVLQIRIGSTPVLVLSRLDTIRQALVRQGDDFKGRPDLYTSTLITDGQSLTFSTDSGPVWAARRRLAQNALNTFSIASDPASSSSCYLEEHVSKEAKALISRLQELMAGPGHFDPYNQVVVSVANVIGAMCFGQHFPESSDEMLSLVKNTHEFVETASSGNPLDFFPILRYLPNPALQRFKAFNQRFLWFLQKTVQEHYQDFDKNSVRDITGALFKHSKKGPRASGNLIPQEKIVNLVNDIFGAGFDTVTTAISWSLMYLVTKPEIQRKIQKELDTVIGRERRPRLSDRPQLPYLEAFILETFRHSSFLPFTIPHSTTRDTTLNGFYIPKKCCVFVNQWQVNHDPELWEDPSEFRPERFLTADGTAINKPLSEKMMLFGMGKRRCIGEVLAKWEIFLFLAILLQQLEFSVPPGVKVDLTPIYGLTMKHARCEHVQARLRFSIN

[2] = Half life in ICR mouse at 0.5 mg/kg, iv measured after 0.0833 to 120 hrs by LC-MS-MS analysis; type: ADME, organism-based; conditions: in vivo
[3] = Toxicity in female Sprague-Dawley rat during 3-month repeated dose toxicology study; conditions: in vivo
Cytochrome P450 3A4 = Cytochrome P450 3A4 (Homo sapiens, UniProt P08684); assay: Inhibition of recombinant human CYP3A4 using testosterone as substrate; type: ADME
Cytochrome P450 3A4, sequence (P08684 whole entry): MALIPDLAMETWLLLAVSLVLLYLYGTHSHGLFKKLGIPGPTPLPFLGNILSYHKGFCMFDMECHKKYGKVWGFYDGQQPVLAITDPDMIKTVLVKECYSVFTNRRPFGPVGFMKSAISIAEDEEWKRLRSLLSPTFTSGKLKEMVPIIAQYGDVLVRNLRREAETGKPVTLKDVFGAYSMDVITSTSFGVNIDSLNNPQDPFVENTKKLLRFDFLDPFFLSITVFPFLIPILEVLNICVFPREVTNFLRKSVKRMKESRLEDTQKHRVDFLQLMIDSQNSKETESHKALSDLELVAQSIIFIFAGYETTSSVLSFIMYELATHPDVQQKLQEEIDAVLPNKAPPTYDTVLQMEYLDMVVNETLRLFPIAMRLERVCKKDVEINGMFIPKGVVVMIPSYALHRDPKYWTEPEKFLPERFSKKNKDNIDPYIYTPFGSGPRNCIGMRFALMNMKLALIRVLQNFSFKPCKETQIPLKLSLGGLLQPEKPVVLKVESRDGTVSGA

[4] = AUC (0 to t) in ICR mouse at 2 mg/kg, po measured after 0.0833 to 120 hrs by LC-MS-MS analysis; type: ADME, organism-based; design: time upper 120 hr, time lower 0.083 hr, dose 2 mg/kg, route oral; conditions: in vivo
[5] = AUC in T2D patient; type: ADME; conditions: human, in vivo
[6] = Intrinsic clearance in mouse liver microsomes at 0.5 uM incubated for 0.5 to 60 mins by LC-MS/MS analysis; type: ADME, Microsome; conditions: read-out: CLH
Cytochrome P450 2A6 = molecular target: T2, Cytochrome P450 2A6 (Homo sapiens, UniProt P11509); assay: Inhibition of recombinant human CYP2A6; type: ADME
T2 sequence (P11509 whole entry): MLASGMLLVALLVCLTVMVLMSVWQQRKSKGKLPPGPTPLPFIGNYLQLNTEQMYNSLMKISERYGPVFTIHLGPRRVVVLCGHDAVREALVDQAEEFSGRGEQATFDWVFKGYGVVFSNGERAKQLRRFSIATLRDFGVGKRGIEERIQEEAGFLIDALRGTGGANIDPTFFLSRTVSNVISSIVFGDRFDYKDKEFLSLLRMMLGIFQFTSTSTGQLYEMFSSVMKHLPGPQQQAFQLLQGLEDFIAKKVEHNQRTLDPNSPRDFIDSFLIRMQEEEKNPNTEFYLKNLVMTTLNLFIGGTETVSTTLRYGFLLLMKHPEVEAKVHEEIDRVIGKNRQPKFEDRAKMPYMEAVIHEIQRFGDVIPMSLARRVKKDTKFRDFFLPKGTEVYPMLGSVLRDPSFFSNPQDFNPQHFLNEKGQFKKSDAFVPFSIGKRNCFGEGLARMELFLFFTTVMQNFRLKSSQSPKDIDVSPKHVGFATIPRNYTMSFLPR

[7] = AUC in female Sprague-Dawley rat during 3-month repeated dose toxicology study; type: ADME; conditions: in vivo
[8] = Oral bioavailability in ICR mouse at 2 mg/kg measured after 0.0833 to 120 hrs by LC-MS-MS analysis; type: ADME, organism-based; conditions: in vivo
[9] = Volume of distribution at steady state in ICR mouse at 0.5 mg/kg, iv measured after 0.0833 to 120 hrs by LC-MS-MS analysis; type: ADME, organism-based; conditions: in vivo, read-out: Vdss
[10] = Toxicity in ob/ob mouse assessed as induction of body weight gain at 1 to 10 mg/kg, po dosed once every three days for 31 days; type: organism-based; conditions: in vivo, 744 h
Cytochrome P450 2C8 = molecular target: T3, Cytochrome P450 2C8 (Homo sapiens, UniProt P10632); assay: Inhibition of recombinant human CYP2C8; type: ADME
T3 sequence (P10632 whole entry): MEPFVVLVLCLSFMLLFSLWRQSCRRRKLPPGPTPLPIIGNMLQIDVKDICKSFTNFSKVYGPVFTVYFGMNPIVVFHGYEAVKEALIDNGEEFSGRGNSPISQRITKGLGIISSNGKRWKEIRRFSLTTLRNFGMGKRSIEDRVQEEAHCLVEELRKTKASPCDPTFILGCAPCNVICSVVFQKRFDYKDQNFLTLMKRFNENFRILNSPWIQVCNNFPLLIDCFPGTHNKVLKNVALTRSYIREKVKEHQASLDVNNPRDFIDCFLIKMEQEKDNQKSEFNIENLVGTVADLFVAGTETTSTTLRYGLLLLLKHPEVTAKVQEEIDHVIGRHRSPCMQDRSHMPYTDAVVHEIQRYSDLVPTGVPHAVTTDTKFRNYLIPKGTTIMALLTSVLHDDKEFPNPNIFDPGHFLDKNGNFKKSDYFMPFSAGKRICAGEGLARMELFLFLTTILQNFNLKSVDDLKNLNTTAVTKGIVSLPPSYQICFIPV

Cytochrome P450 2B6 [11] = molecular target: T4, Cytochrome P450 2B6 (Homo sapiens, UniProt P20813); assay: (§1) Inhibition of recombinant human CYP2B6; type: ADME
T4 sequence (P20813 whole entry): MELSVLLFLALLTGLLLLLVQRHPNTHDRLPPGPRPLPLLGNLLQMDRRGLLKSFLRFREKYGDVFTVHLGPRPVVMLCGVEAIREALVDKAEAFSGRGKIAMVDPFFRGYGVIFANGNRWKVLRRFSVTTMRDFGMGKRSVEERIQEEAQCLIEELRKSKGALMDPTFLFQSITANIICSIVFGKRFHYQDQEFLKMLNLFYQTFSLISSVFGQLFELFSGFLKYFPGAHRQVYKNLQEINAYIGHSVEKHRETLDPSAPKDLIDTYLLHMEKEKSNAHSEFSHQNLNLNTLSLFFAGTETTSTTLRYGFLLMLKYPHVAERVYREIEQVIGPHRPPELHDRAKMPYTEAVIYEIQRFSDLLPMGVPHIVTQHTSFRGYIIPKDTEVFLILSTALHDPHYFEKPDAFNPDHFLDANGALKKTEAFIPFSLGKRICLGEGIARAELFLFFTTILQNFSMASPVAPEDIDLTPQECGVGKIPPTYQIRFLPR

Cytochrome P450 2C9 = Cytochrome P450 2C9 (Homo sapiens, UniProt P11712); assay: Inhibition of recombinant human CYP2C9; type: ADME
Cytochrome P450 2C9, sequence (P11712 whole entry): as the sequence (P11712 whole entry) above

CYP1A2 = CYP1A2 (Homo sapiens, UniProt P05177); assay: Stability assessed as recombinant human CYP1A2 mediated compound metabolism by measuring parent compound remaining after 30 mins relative to control; type: ADME; conditions: read-out: Stability
Cytochrome P450 2B6 [12] = molecular target: T4, Cytochrome P450 2B6; assay: as §1; type: ADME; remark: listed apart in the source
Cytochrome P450 3A5 = Cytochrome P450 3A5 (Homo sapiens, UniProt P20815); assay: Inhibition of recombinant human CYP3A5 using testosterone as substrate; type: ADME
Cytochrome P450 3A5, sequence (P20815 whole entry): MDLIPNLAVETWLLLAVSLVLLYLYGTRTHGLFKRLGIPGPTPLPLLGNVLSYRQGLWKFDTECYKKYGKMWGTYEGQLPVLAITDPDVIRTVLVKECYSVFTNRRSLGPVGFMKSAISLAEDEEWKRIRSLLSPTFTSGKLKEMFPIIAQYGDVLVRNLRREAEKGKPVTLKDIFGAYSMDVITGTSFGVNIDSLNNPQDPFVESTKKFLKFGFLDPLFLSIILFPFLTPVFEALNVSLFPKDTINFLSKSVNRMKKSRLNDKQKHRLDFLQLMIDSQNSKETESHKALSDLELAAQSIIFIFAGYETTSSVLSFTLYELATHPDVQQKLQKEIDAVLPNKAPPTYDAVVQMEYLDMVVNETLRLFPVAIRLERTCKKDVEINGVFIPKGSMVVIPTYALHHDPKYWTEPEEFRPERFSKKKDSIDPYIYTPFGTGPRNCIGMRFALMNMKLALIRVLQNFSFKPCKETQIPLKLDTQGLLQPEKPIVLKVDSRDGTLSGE

CS(=O)(=O)n1cc2c(n1)CN([C@@H]1C[C@H](N)[C@@H](c3cc(F)ccc3F)O[C@@H]1C(F)(F)F)C2 [COFROGLIPTIN]
NOAEL at 3 month [1]: 300 mg/kg | remaining at 0.5 h (CYP2C9): > 95% | IC50 (Cytochrome P450 1A2): > 100 µM | half-life [2]: 25.6 h | NOAEL at 3 month [3]: 100 mg/kg | IC50 (Cytochrome P450 3A4): > 100 µM | AUC(0-t) [4]: 7.9 µg·h/mL | AUC [5]: 34.9 µg·h/mL | microsomal CLint at 0.5 µM [6]: 0.8 µL/min/mg | IC50 (Cytochrome P450 2A6): > 100 µM | AUC [7]: 4240 µg·h/mL | bioavailability [8]: 62.2% | Vd [9]: 3.3 L/kg | Activity [10]: Toxic | IC50 (Cytochrome P450 2C8): > 100 µM | IC50 (Cytochrome P450 2B6 [11]): > 100 µM | IC50 (Cytochrome P450 2C9): > 100 µM | remaining at 0.5 h (CYP1A2): > 95% | IC50 (Cytochrome P450 2B6 [12]): > 100 µM | IC50 (Cytochrome P450 3A5): > 100 µM
